ChEMBL document CHEMBL4152332, “Discovery and synthesis of novel magnolol derivatives with potent anticancer activity in non-small cell lung cancer” (Eur J Med Chem, 2018)

Key:
[1] = test system: NCI-H1975; experiment: Antiproliferative activity against human NCI-H1975 cells after 72 hrs by MTT assay; assay type: functional, cell-based; conditions: NCI-H1975, 72 h
[2] = test system: HCC827; experiment: Antiproliferative activity against human HCC827 cells after 72 hrs by MTT assay; assay type: functional, cell-based; conditions: HCC827, 72 h
[3] = test system: NCI-H460; experiment: Antiproliferative activity against human H460 cells after 72 hrs by MTT assay; assay type: functional, cell-based; conditions: NCI-H460, 72 h
[4] = Antiproliferative activity against human SPC-A1 cells after 72 hrs by MTT assay; assay type: functional, cell-based; conditions: SPCA1, 72 h
[5] = test system: NCI-H1650; experiment: Antiproliferative activity against human NCI-H1650 cells after 72 hrs by MTT assay; assay type: functional, cell-based; conditions: NCI-H1650, 72 h
[6] = test system: NCI-H441; experiment: Antiproliferative activity against human H441 cells after 72 hrs by MTT assay; assay type: functional, cell-based; conditions: NCI-H441, 72 h
[7] = test system: NCI-H358; experiment: Antiproliferative activity against human NCI-H358 cells after 72 hrs by MTT assay; assay type: functional, cell-based; conditions: NCI-H358, 72 h
[8] = test system: A549; experiment: Antiproliferative activity against human A549 cells after 72 hrs by MTT assay; assay type: functional, cell-based; conditions: A549, 72 h
[9] = Apparent aqueous solubility of the compound by HPLC analysis; assay type: physicochemical; conditions: aqueous solution
[10] = test system: PC-9; experiment: Antiproliferative activity against human PC9 cells after 72 hrs by MTT assay; assay type: functional, cell-based; conditions: PC-9, 72 h

Row | Structure (SMILES) | IC50 [1] [µM] | IC50 [2] [µM] | IC50 [3] [µM] | further results
1 | C=CCc1ccc(O)c(-c2ccc(O)c(CC(O)CO)c2)c1 (centres undefined) | > 40 | > 40 | > 40 | 
2 | C=CCc1ccc(O)c(-c2cc(C(=O)O)ccc2O)c1 | > 40 | > 40 | > 40 | 
3 | C=CCc1ccc(O)c(-c2cc(O)ccc2O)c1 [RANDAIOL] | > 40 | > 40 | > 40 | 
4 | C=CCc1ccc(O)c(-c2ccc(O)c(CC3CO3)c2)c1 (centres undefined) | > 40 | > 40 | > 40 | 
5 | C=CCc1ccc(O)c(-c2cc(CC=C)ccc2O)c1 [MAGNOLOL] | > 40 | > 40 | > 40 | IC50 [4]: 78.2 µM; IC50 [5]: 56.6 µM; IC50 [6]: 58.7 µM; IC50 [7]: 61.2 µM; IC50 [8]: 57.4 µM; solubility [9]: < 10 µg/mL; IC50 [10]: 69 µM
6 | C=CCc1cc(-c2cc(C=O)ccc2O)ccc1O [MAGNALEDEHYDE E] | > 40 | > 40 | > 40 | 
7 | C=CCc1cc(-c2cc(O)ccc2O)ccc1O [MAGNATRIOL B] | > 40 | > 40 | > 40 | 
8 | C=CCc1ccc(O)c(-c2cc(CC(O)CO)ccc2O)c1 (centres undefined) | > 40 | > 40 | > 40 | 
9 | C=CCc1ccc(O)c(-c2cc(CC=C)cc(CN3CCN(C)CC3)c2O)c1 | > 20 | > 20 | > 20 | 
10 | C=CCc1cc(-c2cc(/C=C/CO)ccc2O)c(O)c([C@@H]2C=C(C)CC[C@H]2C(C)C)c1 | > 40 | > 40 | > 40 | 
11 | C=CCc1ccc(O)c(-c2cc(CC=C)cc(CN3CCN(C(=O)OC(C)(C)C)CC3)c2O)c1 | > 20 | > 20 | > 20 | 
12 | C=CCc1ccc(O)c(-c2cc(CC=C)cc(CN3CCCC(C(=O)OCC)C3)c2O)c1 (centres undefined) | > 20 | > 20 | > 20 | 
13 | C=CCc1ccc(O)c(-c2cc(CC=C)cc(CN3CCC(C(=O)OCC)CC3)c2O)c1 | > 20 | > 20 | > 20 | 
14 | OCC(O)Cc1ccc(O)c(-c2cc(CC(O)CO)ccc2O)c1 (centres undefined) | > 40 | > 40 | > 40 | 
15 | C=CCc1ccc(O)c(-c2cc(CC=C)cc(CN3CCN(CCCC)CC3)c2O)c1 | > 20 | > 20 | > 20 | 
16 | C=CCc1ccc(O)c(-c2cc(CC=C)cc(CN3CCCC(NC(=O)C=C)C3)c2O)c1 (centres undefined) | > 20 | > 20 | > 20 | 
17 | C=CCc1ccc(O)c(-c2cc(CC=C)cc(CN3CCCC(CO)C3)c2O)c1 (centres undefined) | > 20 | > 20 | > 20 | 
18 | C=CCc1cc(-c2cc(/C=C/C=O)ccc2O)ccc1O [MAGNALEDEHYDE B] | 34.1 | 35.5 | 32.4 | 
19 | C=CCc1ccc(O)c(-c2cc(CC=C)cc(CN3CCC(CNC(=O)OC(C)(C)C)CC3)c2O)c1 | > 20 | > 20 | > 20 | 
20 | C=CCc1ccc(O)c(-c2cc(CC=C)cc(CN3CCC(NC(=O)C=C)CC3)c2O)c1 | > 20 | > 20 | > 20 | 
21 | C=CCc1cc(-c2cc(CC=C)cc([C@@H]3C=C(C)CC[C@H]3C(C)C)c2O)c(O)c([C@@H]2C=C(C)CC[C@H]2C(C)C)c1 | > 40 | > 40 | > 40 | 
22 | C=CCc1ccc(O)c(-c2cc(/C=C/CO)ccc2O)c1 | > 40 | > 40 | > 40 | 
23 | C=CCc1cc(-c2cc(CC(O)CO)ccc2O)ccc1O (centres undefined) [MAGNOLIGNAN] | > 40 | > 40 | > 40 | 
24 | C=CCc1cc(-c2cc(C(=O)O)ccc2O)ccc1O | > 40 | > 40 | > 40 | 
25 | C=CCc1ccc(O)c(-c2cc(CC=C)cc(CN3CCN(CC=C)CC3)c2O)c1 | > 20 | > 20 | > 20 | 

More lines, main results first:

Row | IC50 [1] [µM] | IC50 [2] [µM] | IC50 [3] [µM] | Structure (SMILES) | further results
26 | > 20 | > 20 | > 20 | C=CCc1ccc(O)c(-c2cc(CC=C)cc(CN3CCN(C(=O)N(C)C)CC3)c2O)c1 | 
27 | > 20 | > 20 | > 20 | C=CCc1ccc(O)c(-c2cc(CC=C)cc(CN3CCCCC3)c2O)c1 | 
28 | > 20 | > 20 | > 20 | C=CCc1ccc(O)c(-c2cc(CC=C)cc(CN3CCN(C(C)C)CC3)c2O)c1 | 
29 | > 20 | > 20 | > 20 | C=CCc1ccc(O)c(-c2cc(CC=C)cc(CN3CCN(c4ccccc4)CC3)c2O)c1 | 
30 | > 20 | > 20 | > 20 | C=CCc1ccc(O)c(-c2cc(CC=C)cc(CN3CCOCC3)c2O)c1 | 
31 | > 20 | > 20 | > 20 | C=CCc1ccc(O)c(-c2cc(CC=C)cc(CN3CCN(C=O)CC3)c2O)c1 | 
32 | > 20 | > 20 | > 20 | C=CCc1ccc(O)c(-c2cc(CC=C)cc(CN3CCCC(C)C3)c2O)c1 (centres undefined) | 
33 | > 20 | > 20 | > 20 | C=CCc1ccc(O)c(-c2cc(CC=C)cc(CN3CCSCC3)c2O)c1 | 
34 | > 20 | > 20 | > 20 | C=CCc1ccc(O)c(-c2cc(CC=C)cc(CN3CCN(C(=O)OCC)CC3)c2O)c1 | 
35 | 15.8 | 12.9 | 17.5 | C=CCc1ccc(O)c(-c2cc(CC=C)cc(CN3CCC(NC(=O)OC(C)(C)C)CC3)c2O)c1 | 
36 | > 20 | > 20 | > 20 | C=CCc1ccc(O)c(-c2cc(CC=C)cc(CN3CCN(C(C)=O)CC3)c2O)c1 | 
37 | > 20 | > 20 | > 20 | C=CCc1ccc(O)c(-c2cc(CC=C)cc(CN3CCN(Cc4ccccc4)CC3)c2O)c1 | 
38 | > 20 | > 20 | > 20 | C=CCc1ccc(O)c(-c2cc(CC=C)cc(CN3CCN(CCCO)CC3)c2O)c1 | 
39 | > 20 | > 20 | > 20 | C=CCc1ccc(O)c(-c2cc(CC=C)cc(CN3CCC(CN)CC3)c2O)c1 | 
40 | 13.9 | 15.5 | 16.4 | C=CCc1ccc(O)c(-c2cc(CC=C)cc(CN3CCCC(NC(=O)OC(C)(C)C)C3)c2O)c1 (centres undefined) | 
41 | > 20 | > 20 | > 20 | C=CCc1ccc(O)c(-c2cc(CC=C)cc(CN3CCN(C(=O)C4CC4)CC3)c2O)c1 | 
42 | > 20 | > 20 | > 20 | C=CCc1ccc(O)c(-c2cc(CC=C)cc(CN3CCNCC3)c2O)c1 | 
43 | 34.5 | 33.6 | 31.6 | C=CCc1cc(-c2cc(/C=C/CO)ccc2O)ccc1O | 
44 | 16.5 | 18.9 | 17.4 | C=CCc1ccc(O)c(-c2cc(CC=C)cc(CN3CCN(CCO)CC3)c2O)c1 | 
45 | 26.7 | 31.4 | 27.6 | C=CCc1cc(-c2ccc(O)c(CC=C)c2)c(O)c([C@@H]2C=C(C)CC[C@H]2C(C)C)c1 | 
46 | 16.6 | 15.8 | 18.6 | C=CCc1ccc(O)c(-c2cc(CC=C)cc([C@@H]3C=C(C)CC[C@H]3C(C)C)c2O)c1 | solubility [9]: < 10 µg/mL
47 | 25.8 | 26.4 | 25.3 | C=CCc1ccc(O)c(-c2ccc(O)c(/C=C/C)c2)c1 | 
